Assay [1] deals with mouse wound model (6 mm punch biopsy wound held open by a silicone splint ring). In words: In vivo mouse wound model: re-epithelialization (H&E) after Flx+ delivery from wearable bioelectronic bandage. An excerpt:
(§1) FIG. 6 illustrates testing of the efficacy of the bioelectronic bandage in vivo on a mouse wound model. We created a 6 mm punch biopsy wound held open by a silicone splint ring to minimize wound contraction (FIG. 6A). Wound contraction is a major wound healing process in mice but not humans. It confounds the histological analysis of the wound reponse to therapy, particularly re-epithelialization [12b, 13]. A gas-permeable, transparent adhesive dressing, Tegaderm™, fixes the bioelectronic bandage to the mouse (FIG. 6A, right) so that the mouse can move around its cage without interference (FIG. 6B). This is possible because the lightweight bandage (2.5 g) represents less than 10% of the mouse weight. For this test, we programmed the bandage to deliver Flx^+ for three days for six hours per day (FIG. 6C).
(§2) We utilized a machine-learning algorithm reported to analyze images of wounds and evaluate their condition and healing progression (FIG. 6D). The algorithm automatically marked the wound area and analyzed the wound size (FIG. 6E). […] To further investigate healing, the wounds were fully excised at the end of the experiment, fixed, and stained with hematoxylin and eosin (H&E) to assess wound re-epithelialization (FIG. 6G-H). […] This variability allowed us to qualitatively correlate the dose of Flx^+ and wound healing as measured by the percentage of re-epithelization (FIG. 6J, right). […]

In assay [2] the test system is mouse wound model (6 mm punch biopsy wound). Briefly: Wound size analysis from wound images by machine-learning algorithm. It is filed as in vivo. Particulars: fluoxetine-treated wounds, similar trend to control.
From the text: as §1, §2

The test system of assay [3] is M1 and M2 macrophages in the wound. Briefly: Macrophage analysis of the wound (immunohistochemistry, M1 iNOS / M2 CD206 / F4/80). The assay is classed as in vivo, mouse. An excerpt:
All cells (stained by DAPI, shown in blue), M1 (stained by iNOS, shown in green), M2 (stained by CD206, shown in red), and overall macrophages (stained by F4/80, shown in gray) were imaged and presented, FIG. 7b is an overlay of M1 and M2 staining, showing the distribution and ratio of macrophage subtypes, FIG. 7c is a box plot showing statistics of the M1/M2 ratio, which was 1.80+/−0.62 in the control group and 1.31+/−0.46 for the fluoxetine-treated group. […] The blue dot represents the M1/M2 ratio from the control group, and the red dot represents the fluoxetine-treated group. The dashed lines indicate the projected wound age, while the solid line represents the trend plotted from the data in the reference..
After analyzing the promising re-epithelization data, we delved deeper into another crucial indicator of wound healing: the M1/M2 macrophage ratio (FIG. 7). Macrophages play a pivotal role in the immune response and are crucially involved in the healing and regeneration of wounds. Although macrophages are phenotypically heterogeneous over a continuum, a simplified classification based on their polarized functions during the different stages of wound repair defines the M1 subtype that carries out pro-inflammatory activities and the M2 subtype that is anti-inflammatory and promotes tissue repair. […] Meanwhile, the number of M2-like macrophages increased in the center of the fluoxetine-treated wound, as depicted in FIG. 7A.

With `CNCCC(Oc1ccc(C(F)(F)F)cc1)c1ccccc1` (stereo not shown) [fluoxetine], the “increase in re-epithelialization compared to control” value in assay [1] (Flx+ delivered from the bioelectronic bandage, three days, six hours per day, H&E of excised wounds, P<0.05) amounted to 39.9%. Moreover, the “reepithelization in mouse 2 (>300 nMol per day Flx+) versus mouse 15 (10× smaller dose)” value in assay [1] (qualitative dose comparison, bioelectronic bandage) was “much faster”. Moreover, in assay [2], the “wound size trend over time” value is on record as “slight increase in size at day 1, followed by a decrease on subsequent days”. The “decrease in M1/M2 ratio compared to control” value in assay [3] (day 3, n=13 mice, P<0.05) stood at 27.2%. In addition, the M1/M2 ratio in assay [3] (fluoxetine-treated group, day 3, n=13 mice) is given as 1.31+/−0.46. The “number of M2-like macrophages in the center of the wound” value in assay [3] (fluoxetine-treated wound, day 3) is on record as “increased”. The “M1 macrophage infiltration of the center of the wound” value in assay [3] (three days after injury, control wound significantly infiltrated) is recorded as “no change”.
